From article PMC5587797 (Nucleic Acids Research, 2017) come the findings set out here.

Experiment [1] deals with hTRMT10A (Homo sapiens, UniProt Q8TBZ6, D210N). Briefly: biochemical.
In experiment [2] the target is hTRMT10A (Homo sapiens, UniProt Q8TBZ6). Briefly: biochemical.

Molecules are shown by their SMILES.

hTRMT10A (Homo sapiens, UniProt Q8TBZ6, D210N), sequence (Q8TBZ6 whole entry D210N): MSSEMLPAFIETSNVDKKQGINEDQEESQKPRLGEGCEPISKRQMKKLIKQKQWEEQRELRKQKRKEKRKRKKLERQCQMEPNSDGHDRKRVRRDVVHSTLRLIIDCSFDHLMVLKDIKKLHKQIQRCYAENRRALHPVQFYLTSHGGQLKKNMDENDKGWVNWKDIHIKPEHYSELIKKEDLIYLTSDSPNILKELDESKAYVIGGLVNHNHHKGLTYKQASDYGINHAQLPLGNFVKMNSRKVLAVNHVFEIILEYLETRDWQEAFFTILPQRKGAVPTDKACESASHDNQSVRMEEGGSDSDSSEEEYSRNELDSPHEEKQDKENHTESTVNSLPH
hTRMT10A (Homo sapiens, UniProt Q8TBZ6), sequence (Q8TBZ6 whole entry): as the sequence (Q8TBZ6 whole entry D210N) above, with N210D counted along it

`C[S+](CC[C@H](N)C(=O)O)C[C@H]1O[C@@H](n2cnc3c(N)ncnc32)[C@H](O)[C@@H]1O` (some centres unmarked) [S-adenosyl methionine]: the Kd is 60.6 ± 10.3 µM at hTRMT10A [1] and 17.7 ± 4 µM at hTRMT10A [2].
